# Experiments:
# [1] = microbe, parasite or virus in culture; settings: Mycobacterium tuberculosis, 96 h, read-out: pIC50 (converted)
# [2] = microbe, parasite or virus in culture; settings: Mycobacterium tuberculosis, 72 h, read-out: pIC50 (converted)
smiles,measurement,setting,value
CNC(=O)NC(=O)C(C)Nc1cccc(C)c1 (stereo unspecified),IC50,[1],190 µM
same,IC50,[2],201 µM
COC(=O)CCCC(=O)N1CCCc2ccc(F)cc21,IC50,[1],277 µM
same,IC50,[2],213 µM
Cc1ccc2c(c1)nc(CN)n2C,IC50,[1],348 µM
same,IC50,[2],231 µM
FC(F)Oc1ccccc1CN1CCCC(c2nccn2CC2CC2)C1 (stereo unspecified),IC50,[1],> 50.1 µM
same,IC50,[2],> 50.1 µM
CCOc1cccc(Cn2cnc(CC)cc2=O)n1,IC50,[1],> 501 µM
same,IC50,[2],> 501 µM
NCCc1ccc(OCC(F)(F)F)nc1,IC50,[1],211 µM
same,IC50,[2],111 µM
CCc1nc(CNc2ccc(F)cc2I)no1,IC50,[1],2.44 µM
same,IC50,[2],3.04 µM
Cc1cccnc1NCCNC1CSCCSC1,IC50,[1],> 501 µM
same,IC50,[2],248 µM
CN(CCS(=O)(=O)c1ccc(Cl)cc1)CC(=O)N(C)C,IC50,[1],105 µM
same,IC50,[2],63.6 µM
CCc1ccc(C(=O)NCc2ccccn2)o1,IC50,[1],138 µM
same,IC50,[2],40.5 µM
FC(F)(F)c1ccc2nc([C@H]3CCN(C4CCCCC4)C3)[nH]c2c1,IC50,[1],24.9 µM
same,IC50,[2],27.5 µM
CC(C)CCNC(=O)Nc1ccc(S(C)(=O)=O)cc1,IC50,[1],127 µM
same,IC50,[2],162 µM
Cc1ccc(-c2nc(CNC(C)Cn3cccn3)cs2)o1 (stereo unspecified),IC50,[1],> 50.1 µM
same,IC50,[2],> 50.1 µM
Cc1n[nH]cc1CNCC(c1ccsc1)N(C)C (stereo unspecified),IC50,[1],> 50.1 µM
same,IC50,[2],> 50.1 µM
COc1ccc(NC(=O)CNc2ccc(Br)cc2F)cc1,IC50,[1],> 50.1 µM
same,IC50,[2],> 50.1 µM
c1ccc(OCCCOC2CNC2)cc1,IC50,[1],> 501 µM
same,IC50,[2],177 µM
O=C(NCCNC(=O)C1CCCC1)c1ccccc1O,IC50,[1],402 µM
same,IC50,[2],229 µM
NCCOc1ccc2ccccc2n1,IC50,[1],> 501 µM
same,IC50,[2],244 µM
NCC(=O)N1CCCC(CCc2ccc(F)cc2)C1 (stereo unspecified),IC50,[1],310 µM
same,IC50,[2],333 µM
Cc1cccc(CN2C[C@@H](CN3CCCN(C)CC3)C[C@H](CO)C2)n1,IC50,[1],> 50.1 µM
same,IC50,[2],> 50.1 µM
CNC(=O)COC(=O)Cc1ccc(Br)cc1,IC50,[1],> 501 µM
same,IC50,[2],> 501 µM
COc1ccc(Nc2ncccc2S(N)(=O)=O)cc1,IC50,[1],> 501 µM
same,IC50,[2],> 501 µM
CCN1CC2(CC1=O)CN(Cc1cnn(C)c1)CCN(C(=O)C(C)C)C2 (stereo unspecified),IC50,[1],> 50.1 µM
same,IC50,[2],> 50.1 µM
Cc1cccc(NC(=O)NCc2c(C)noc2C)n1,IC50,[1],> 501 µM
same,IC50,[2],238 µM
Cc1cc(C(=O)NCc2cccc(F)c2)no1,IC50,[1],308 µM
same,IC50,[2],52.9 µM
CN(C)c1ncnc2c1CCN(C(=O)CN1CCCCC1)C2,IC50,[1],> 50.1 µM
same,IC50,[2],> 50.1 µM
O=C(NCc1cccnc1)C1COc2ccccc2O1 (stereo unspecified),IC50,[1],> 501 µM
same,IC50,[2],> 501 µM
Cc1ccccc1OCC(O)CN1CCC[C@@H]1CO (stereo partly specified),IC50,[1],> 501 µM
same,IC50,[2],280 µM
CN1CCC(N(C)CCC(=O)N2CCC(Cc3ccc(F)cc3)CC2)C1 (stereo unspecified),IC50,[1],> 50.1 µM
same,IC50,[2],22 µM
NC1CCCc2occc21 (stereo unspecified),IC50,[1],245 µM
same,IC50,[2],142 µM
NCc1ccncc1OCC(F)(F)F,IC50,[1],> 501 µM
same,IC50,[2],> 501 µM
Cc1noc(C)c1CNC(=O)c1csc(S(N)(=O)=O)c1,IC50,[1],> 501 µM
same,IC50,[2],> 501 µM
CN(Cc1ccc(N)nc1)c1ccc(C#N)cn1,IC50,[1],> 501 µM
same,IC50,[2],> 501 µM
OCCNCCNCc1ccc(-c2ccccc2F)o1,IC50,[1],40.9 µM
same,IC50,[2],211 µM
COC(=O)c1ccc(-c2noc(CN(CCO)Cc3cccs3)n2)cc1,IC50,[1],> 50.1 µM
same,IC50,[2],47.5 µM
CCNC(=O)NC(=O)CN(C)Cc1ccccc1,IC50,[1],134 µM
same,IC50,[2],171 µM
CN(C)C(=O)CSc1nnc(C(F)(F)F)s1,IC50,[1],305 µM
same,IC50,[2],487 µM
COCc1nn(CCC2CCCC2)c(=O)o1,IC50,[1],86.6 µM
same,IC50,[2],68.2 µM
CN(CC(=O)Nc1sccc1C(N)=O)Cc1cccs1,IC50,[1],> 501 µM
same,IC50,[2],117 µM
CNc1cc2c(nn1)CCN(C(=O)c1cccc3c1OCCO3)C2,IC50,[1],> 50.1 µM
same,IC50,[2],> 50.1 µM
CCOC(=O)C(C)Nc1ccc2c(c1)CCCC(=O)N2 (stereo unspecified),IC50,[1],> 501 µM
same,IC50,[2],> 501 µM
CC1CCCCN1S(=O)(=O)N1CCNCC1 (stereo unspecified),IC50,[1],> 501 µM
same,IC50,[2],> 501 µM
CCCC(=O)NC(C)(C)Cc1ccccc1OC,IC50,[1],> 50.1 µM
same,IC50,[2],3.52 µM
NC1(c2nc(C3CC3)cc(=O)[nH]2)CCCC1,IC50,[1],> 501 µM
same,IC50,[2],304 µM
O=C1CNc2ncnc(N3CCN(c4ccccc4F)CC3)c2N1,IC50,[1],> 50.1 µM
same,IC50,[2],> 50.1 µM
Cc1cc(Cl)ccc1C(=O)C1CCCN(Cc2cnc(N(C)C)s2)C1 (stereo unspecified),IC50,[1],40.8 µM
same,IC50,[2],45.7 µM
O=C(NC1CCCc2ccccc21)c1ccncc1 (stereo unspecified),IC50,[1],> 501 µM
same,IC50,[2],146 µM
Cc1[nH]ncc1C(=O)NCCCSCC(C)C,IC50,[1],> 501 µM
same,IC50,[2],102 µM
CC1CCC(NC(=O)Cn2cnc(C#N)n2)CC1 (stereo unspecified),IC50,[1],98.1 µM
same,IC50,[2],101 µM
COc1ccc(C)cc1CCN,IC50,[1],277 µM
same,IC50,[2],272 µM
O=C1c2ccccc2OCC1CN1CCOCC1 (stereo unspecified),IC50,[1],> 501 µM
same,IC50,[2],266 µM
CO[C@H]1CNCC1NC(=O)c1cc2ccccc2n1C (stereo partly specified),IC50,[1],> 501 µM
same,IC50,[2],359 µM
CCC(C(=O)Nc1cc2c(cc1C)OCO2)N(C)C (stereo unspecified),IC50,[1],> 501 µM
same,IC50,[2],> 501 µM
